A short description of data set [1]: Plasma pharmacokinetics after repeated once daily oral dosing of 2.5% (m/v) oily suspension. Format: in vivo, cat. The conditions noted are these: for AUC / Cmax / Tmax / half-life: both sexes, plasma, po, 4.8 mg/kg, 4.8 mg molidustat sodium per kg once daily oral, geometric mean (CV). The protocol: Following a single group design, eight healthy, young adult cats (4 neutered males, 4 spayed females) were included in the study. The animals were between 14 and 15.5 months old and weighed between 3.35 and 4.95 kg at start of the in-life phase.
The dose rate administered was 4.8 mg molidustat sodium per kg. Dosing was once daily on 6 consecutive days keeping an interval of 24 h. Dose rate calculation was based on the body weights determined on SD-1 for all administrations.
Thirty-one blood samples were drawn per animal following a pre-determined schedule deemed suitable to describe the pharmacokinetic profile of the active substance contained in the test item after repeated dosing to cats.
Concentrations of the active substance molidustat and its major metabolite in plasma were analyzed by High Performance Liquid Chromatography/Tandem Mass Spectrometry. The lower limit of quantitation was 5 μg/L for each substance.
Pharmacokinetic evaluation of plasma concentration data was based on the observed data using non-compartmental methods and comprised all PK-parameters to adequately describe the absorption, distribution and elimination phase of the active substance and its metabolite after repeated dosing with the test item.

The nature of data set [2]: Plasma pharmacokinetics, oral bioavailability and dose proportionality after single oral dose. Conditions: both sexes, geometric mean (CV). Format: in vivo, cat. The protocol: The test item was applied as single oral dose at the expected target dose rate of 5 mg molidustat sodium per kg bw, at 2.5 mg/kg and at 10 mg/kg to healthy adult cats. A single intravenous bolus dose of 5.0 mg/kg was applied for comparison using a suitable reference item (molidustat sodium aqueous solution 2.0% (m/v)).
Following a mixed serial/cross-over design, 16 healthy, adult cats (8 neutered males, 8 spayed females) were included in the study and allocated to […]. The animals were between 13.7 and 14.7 months old and weighed between 3.3 and 6.0 kg at start of the in-life phase.
The dose rates administered were at means of 2.42 mg/kg, 4.79, and 9.54 mg molidustat sodium per kg for the 0.5×, 1×, 2× dose groups, respectively. The reference item was dosed at an actual mean dose rate of 5.15 mg/kg. Dose rate calculations were based on the body weights determined prior to each study period.
Fifteen blood samples were drawn per animal after oral dosing (16 samples/animal after intravenous dosing) following a pre-determined schedule deemed suitable to describe the pharmacokinetic profile of the active substance contained in the test and reference item after single oral or intravenous dosing to cats.
Concentrations of the active substance molidustat and its major […] were analyzed by High Performance Liquid Chromatography/Tandem Mass Spectrometry in accordance with method 01469 (Krebber et al., Analytical method for the determination of BAY 85-3934 and its metabolite BAY 116-3348 in plasma by LC-MS/MS, BAG-CS report MR-15/109). The lower limit of quantitation was 5 μg/L for each substance.
Pharmacokinetic evaluation of plasma concentration data was based on the observed data using non-compartmental methods and comprised all PK-parameters to adequately describe the absorption, distribution and elimination phase of the active substance and its metabolite after oral or intravenous dosing with the test or reference item. For pharmacokinetic evaluation actual individual dose rates were used to account for the small differences between target and actual dose rates. All animals finished the in-life phase according to schedule.

One may read the AUC as the area under the concentration-time curve, a measure of exposure. For orientation: Cmax means the peak of the concentration-time curve. The term Tmax denotes the time at which the peak concentration occurs. One may read the half-life as the time needed for the level to fall by half in the phase considered. A lower half-life goes with rapid decline.

As to `O=c1c(-n2ccnn2)c[nH]n1-c1cc(N2CCOCC2)ncn1` [molidustat, 2-[6-(morpholin-4-yl)pyrimidin-4-yl]-4-(1H-1,2,3-triazol-1-yl)-2,3-dihydro-1H-pyrazol-3-one], the AUC in data set [1] (first dose) stood at 13300 ng·h/mL; in data set [1] (last (6th) dose) it was 13300 ng·h/mL; in data set [2] (2.5 mg/kg single oral dose) it was 5600 ng·h/mL; in data set [2] (5.0 mg/kg single oral dose), 12700 ng·h/mL; in data set [2] (10 mg/kg single oral dose), 23500 ng·h/mL. Also, the Cmax in data set [1] (first dose) came to 4460 ng/mL; in data set [1] (last (6th) dose), 4100 ng/mL; in data set [2] (2.5 mg/kg single oral dose), 2700 ng/mL; in data set [2] (5.0 mg/kg single oral dose), 3830 ng/mL; in data set [2] (10 mg/kg single oral dose), 6730 ng/mL. The Tmax in data set [1] (first dose) was found to be 0.64 h; in data set [1] (last (6th) dose), 0.94 h; in data set [2] (2.5 mg/kg single oral dose), 0.5 h; in data set [2] (5.0 mg/kg single oral dose) it was 1 h; in data set [2] (10 mg/kg single oral dose) it was 1 h. The half-life in data set [1] (first dose) is 4.2 h; in data set [1] (last (6th) dose), 6.5 h; in data set [2] (2.5 mg/kg single oral dose), 5 h; in data set [2] (5.0 mg/kg single oral dose), 4.6 h; in data set [2] (10 mg/kg single oral dose), 7.1 h. This molecule also gave an accumulation index in data set [1] (repeated once daily oral dosing, 6 days) of 1.1.

These data come from US20250161317A1, “MOLIDUSTAT FORMULATIONS AND METHODS OF USE FOR TREATMENT OF ANEMIA IN CATS” (ELANCO US INC., priority 2022, published 2025).
